# Results: the SangsterLogP compilation
row,SMILES,logP
1,O=C(Nc1ccccc1)C1CCC(F)(F)C1 (stereo unspecified),2.5
2,O=C(Nc1ccccc1)C12CC(C(F)F)(CO1)C2,1.93
3,O=C(c1ccccc1)N1CCC1C(F)(F)F (stereo unspecified),1.75
4,C[C@@H]1C[C@H]1C(=O)Nc1ccccc1,2.42
5,O=C(Nc1ccccc1)C1CCCCC1(F)F (stereo unspecified),2.5
6,O=C(NC1CCCC1)c1ccccc1,2.23
7,O=C(N[C@@H]1CC[C@@H]1F)c1ccccc1,1.57
8,O=C(NCCF)c1ccccc1,1.07
9,O=C(c1ccccc1)N1CCCC1CF (stereo unspecified),1.75
10,O=C(c1ccccc1)N1CC(CF)C1,0.93
11,O=C(NC1CCC(F)(F)C1)c1ccccc1 (stereo unspecified),2.02
12,O=C(Nc1ccccc1)C1CCC(F)(F)CC1,2.63
13,O=C(NCCCC(F)F)c1ccccc1,1.76
14,O=C(Nc1ccccc1)[C@@H]1C[C@@H]2[C@H](C1)C2(F)F,2.88
15,O=C(Nc1ccccc1)[C@H]1C[C@H](CF)C1,2.14
16,CC(F)(F)CCNC(=O)c1ccccc1,1.81
17,O=C(Nc1ccccc1)C1CC2(CCC2)C1,3.27
18,O=C(c1ccccc1)N1CC[C@@H](F)[C@H](F)C1,1.26
19,O=C(N[C@H]1C[C@@H](C(F)F)C1)c1ccccc1,1.98
20,O=C(NC1C(F)(F)C12CC2)c1ccccc1 (stereo unspecified),2.14
21,O=C(c1ccccc1)N1CC2CC(C1)CS(=O)(=O)C2,-0.34
22,O=C(c1ccccc1)N1CC2CCC(C2)C1,2.31
23,O=C(Nc1ccccc1)[C@@H]1CC[C@H]1F,2.04
24,O=C(c1ccccc1)N1CC2CCC1CC2,2.01
25,O=C(Nc1ccccc1)C1CCCC1(F)F (stereo unspecified),2.25
26,O=C(c1ccccc1)N1C[C@@H](F)[C@@H](F)C1,1.01

row,SMILES,logP
1,O=C(c1ccccc1)N1CC2CCC1(C(F)(F)F)CC2,2.51
2,O=C(N[C@@H]1C[C@H]1C(F)F)c1ccccc1,1.64
3,O=C(N[C@H]1C[C@@H](CF)C1)c1ccccc1,1.77
4,O=C(c1ccccc1)N1CCC(F)(F)C1,1.35
5,O=C(Nc1ccccc1)[C@@H]1CC[C@@H]1F,1.74
6,C[C@@H]1C[C@@H]1C(=O)Nc1ccccc1,2.31
7,O=C(Nc1ccccc1)C1CCCC(F)(F)CC1 (stereo unspecified),2.95
8,O=C(Nc1ccccc1)[C@@H]1C[C@@H]1CF,1.88
9,O=C(c1ccccc1)N1CCC(CF)CC1,1.45
10,O=C(Nc1ccccc1)C1CC2(C1)CC(F)(F)C2,2.93
11,O=C(c1ccccc1)N1CC[C@@H](F)[C@@H](F)C1,1.15
12,O=C(c1ccccc1)N1CCC1CF (stereo unspecified),1.4
13,O=C(N[C@H]1C[C@H](F)C1)c1ccccc1,1.71
14,O=C(c1ccccc1)N1CC(C(F)F)C1,1.4
15,O=C(N[C@H]1C[C@@H]2C[C@@H]2C1)c1ccccc1,2.19
16,O=C(NC1(C(F)(F)F)CCC1)c1ccccc1,2.51
17,CCC(F)(F)CNC(=O)c1ccccc1,2.04
18,O=C(NC1CC1(F)F)c1ccccc1 (stereo unspecified),1.51
19,O=C(c1ccccc1)N1CCCC1C(F)F (stereo unspecified),1.88
20,O=C(Nc1ccccc1)[C@H]1C[C@@H](F)C1,1.86
21,O=C(NCCC(F)F)c1ccccc1,1.49
22,O=C(Nc1ccccc1)[C@H]1C[C@@H]2[C@H](C1)C2(F)F,2.37
23,O=C(NC1CC2(CC(F)C2)C1)c1ccccc1 (stereo unspecified),2.39
24,O=C(NCCCF)c1ccccc1,1.28
25,O=C(CCCC(F)F)Nc1ccccc1,2.06
26,O=C(NC1CC2(C1)CC(F)(F)C2)c1ccccc1,2.53

row,SMILES,logP
1,O=C(NC1CCCCCC1)c1ccccc1,3.03
2,O=C(Nc1ccccc1)[C@H]1C[C@H](C(F)(F)F)C1,3.02
3,O=C(N[C@H]1C[C@@H]2[C@H](C1)C2(F)F)c1ccccc1,2.47
4,O=C(c1ccccc1)N1CCC(F)C1 (stereo unspecified),0.91
5,O=C(Nc1ccccc1)[C@@H]1CC[C@H]1C(F)(F)F,2.88
6,O=C(NC1CCCC(F)(F)CC1)c1ccccc1 (stereo unspecified),2.5
7,O=C(NC1CCC1)c1ccccc1,1.95
8,O=C(NC1CC12CC2(F)F)c1ccccc1 (stereo unspecified),2.04
9,O=C(c1ccccc1)N1CC2CC1(C(F)(F)F)C2,1.93
10,O=C(c1ccccc1)N1CC2CCCC1C2 (stereo unspecified),1.88
11,O=C(Nc1ccccc1)C1CC12CC2 (stereo unspecified),2.35
12,CCCCNC(=O)c1ccccc1,2.23
13,O=C(c1ccccc1)N1CCCC(CF)C1 (stereo unspecified),1.52
14,O=C(N[C@@H]1C[C@H]1CF)c1ccccc1,1.41
15,C[C@@H]1C[C@@H]1NC(=O)c1ccccc1,1.64
16,O=C(Nc1ccccc1)C1CCCCC(F)(F)C1 (stereo unspecified),3.03
17,O=C(N[C@H]1C[C@@H](F)C1)c1ccccc1,1.67
18,O=C(c1ccccc1)N1CC2CC(C1)CC(F)(F)C2,1.59
19,O=C(Nc1ccccc1)C1(C(F)F)CCC1,2.19
20,O=C(N[C@H]1C[C@H](C(F)(F)F)C1)c1ccccc1,2.82
21,O=C(Nc1ccccc1)[C@@H]1CC[C@H]1C(F)F,2.22
22,O=C(Nc1ccccc1)C1CC2(CC(F)C2)C1 (stereo unspecified),2.69
23,O=C(Nc1ccccc1)[C@H]1C[C@H](C(F)F)C1,2.39
24,O=C(Nc1ccccc1)[C@H]1C[C@@H](CF)C1,1.96
